Reference: the NIST ThermoML archive (doi:10.1016/j.jct.2018.09.037)
Several values for one entry are separate records, joined by “and”; a condition that tells them apart may be missing. Equal entries are not always repeated. Numbers after ± are expanded uncertainties.

Assay: xn = mol fraction of the nth substance listed
Details: 100 kPa, Liquid, Electromagnetic levitation / mass taken directly, volume taken from sample image

[Pd] [palladium] + [Fe]
Details | mass density
1414 K, x1 = 0.6 | 8979 ± 390 kg/m3
1437 K, x1 = 0.6 | 8950 ± 390 kg/m3
1440 K, x1 = 0.8 | 9717 ± 240 kg/m3
1476 K, x1 = 0.6 | 8899 ± 390 kg/m3
1483 K, x1 = 0.6 | 8904 ± 390 kg/m3
1483 K, x1 = 0.8 | 9676 ± 240 kg/m3
1500 K, x1 = 0.4 | 8297 ± 360 kg/m3
1512 K, x1 = 0.4 | 8275 ± 360 kg/m3
1536 K, x1 = 0.6 | 8856 ± 390 kg/m3
1543 K, x1 = 0.8 | 9619 ± 240 kg/m3
1551 K, x1 = 0.6 | 8825 ± 380 kg/m3
1562 K, x1 = 0.4 | 8208 ± 360 kg/m3
1590 K, x1 = 0.6 | 8791 ± 380 kg/m3
1598 K, x1 = 0.8 | 9769 ± 240 kg/m3
1613 K, x1 = 0.6 | 8779 ± 380 kg/m3
1613 K, x1 = 0.8 | 9499 ± 240 kg/m3
1624 K, x1 = 0.8 | 9547 ± 240 kg/m3
1625 K, x1 = 0.4 | 8150 ± 360 kg/m3
1625 K, x1 = 0.8 | 9735 ± 240 kg/m3
1630 K, x1 = 0.2 | 7824 ± 210 kg/m3
1633 K, x1 = 0.6 | 8756 ± 380 kg/m3
1651 K, x1 = 0.2 | 7615 ± 200 kg/m3
1663 K, x1 = 0.6 | 8735 ± 380 kg/m3
1665 K, x1 = 0.8 | 9694 ± 250 kg/m3
1667 K, x1 = 0.6 | 8709 ± 380 kg/m3
1668 K, x1 = 0.2 | 7805 ± 210 kg/m3
1672 K, x1 = 0.8 | 9450 ± 240 kg/m3
1681 K, x1 = 0.2 | 7789 ± 210 kg/m3 and 7591 ± 200 kg/m3
1707 K, x1 = 0.8 | 9656 ± 250 kg/m3
1711 K, x1 = 0.4 | 8076 ± 350 kg/m3
1713 K, x1 = 0.2 | 7775 ± 210 kg/m3
1715 K, x1 = 0.6 | 8695 ± 380 kg/m3
1721 K, x1 = 0.2 | 7550 ± 200 kg/m3
1725 K, x1 = 0.6 | 8660 ± 380 kg/m3
1742 K, x1 = 0.2 | 7739 ± 210 kg/m3
1749 K, x1 = 0.8 | 9379 ± 240 kg/m3
1767 K, x1 = 0.8 | 9602 ± 250 kg/m3
1772 K, x1 = 0.2 | 7506 ± 200 kg/m3
1789 K, x1 = 0.6 | 8633 ± 380 kg/m3
1790 K, x1 = 1 | 10670 ± 170 kg/m3
1795 K, x1 = 1 | 10672 ± 170 kg/m3
1796 K, x1 = 1 | 10652 ± 170 kg/m3
1802 K, x1 = 1 | 10686 ± 170 kg/m3
1809 K, x1 = 1 | 10670 ± 170 kg/m3
1820 K, x1 = 1 | 10677 ± 180 kg/m3
1829 K, x1 = 0.4 | 7971 ± 350 kg/m3
1831 K, x1 = 1 | 10627 ± 180 kg/m3
1832 K, x1 = 0.4 | 7965 ± 350 kg/m3
1832 K, x1 = 0.8 | 9536 ± 250 kg/m3
1838 K, x1 = 0.2 | 7700 ± 210 kg/m3
1841 K, x1 = 0.8 | 9278 ± 240 kg/m3
1843 K, x1 = 1 | 10654 ± 180 kg/m3
1856 K, x1 = 1 | 10601 ± 180 kg/m3
1864 K, x1 = 0.2 | 7646 ± 210 kg/m3
1872 K, x1 = 0.2 | 7426 ± 200 kg/m3
1878 K, x1 = 1 | 10558 ± 180 kg/m3
1879 K, x1 = 0.6 | 8530 ± 380 kg/m3
1889 K, x1 = 0.6 | 8544 ± 380 kg/m3
1889 K, x1 = 1 | 10592 ± 180 kg/m3
1890 K, x1 = 1 | 10575 ± 180 kg/m3
1916 K, x1 = 0.8 | 9434 ± 250 kg/m3
1917 K, x1 = 1 | 10529 ± 180 kg/m3
1935 K, x1 = 1 | 10478 ± 180 kg/m3
1951 K, x1 = 1 | 10465 ± 180 kg/m3
